Results from patent US4387087A, “Cationic lipophilic complexes of ^99m Tc and their use for myocardial and hepatobiliary imaging” (priority 1980, dated 1983).
Values joined by “and” are separate entries in the source; they are usually repeats but may differ in a detail not shown here. Equal values may be shown once.

Assays:
Assay type in all cases: in vivo
[1] = Tissue distribution studies using normal female Sprague-Dawley rats (Table 1)
[2] = Time dependent myocardial and gallbladder distributions, computer analysis of scintigraphic data (Example 7, FIG. 3); settings: dog
Description: FIG. 3 compares the gallbladder uptake and heart clearing of 99m-Tc (diars)2 Cl2^+ with that of 99m-Tc (diars)2 Br2^+.
(§1) The two title complexes were injected into a dog as described for the complex of Example 4. […] These differences are graphically illustrated in FIG. 3, wherein are plotted time dependent myocardial and gallbladder distributions obtained by computer analysis of scintigraphic data; data for a given complex are normalized, but comparative data between complexes are not.

[3] = Hepatobiliary imaging in a mongrel dog (Example 6, FIGS. 1 and 2)
Description: FIG. 2 is a schematic describing the photograph of FIG. 1. Both the photograph and accompanying schematic were taken after the complex had cleared the blood (5 minutes after injection), entered the liver and started clearing the liver and entering the gallbladder (10 minutes after injection).
The title complex was injected in the same vehicle as in Example 4 into a mongrel dog and images were obtained by positioning a camera directly over the chest of the dog.

[4] = Blood clearance curves (Example 7, FIG. 4); settings: dog
Source text: It is clear that these two chemically similar agents are somewhat differentiated in the biological system.
Imaging of the myocardium or the hepatobiliary system can then be carried out (after waiting for appropriate periods of time to permit blood clearance of the radiopharmaceutical), by standard scanning techniques (Andres, J. T. et al., "Nuclear Medicine", Wiley & Sons, N.Y., 1977; "Basic Science Principles of Nuclear Medicine", Boyd, C. M. and Dalrymple, G. V., eds., Morby, St. Louis, 1974). For example, time dependent scintiscans of the chest region of a patient can be used. A computer interface, 16 crystal, Ohio Nuclear Spectrometer, is used for these scans and about 5 mCi of a given radiopharmaceutical is injected; blood samples are concurrently collected via an indwelling intravenous catheter in order to determine blood clearance rates. Time dependent tissue distribution studies are then conducted.
as §1

[5] = Myocardial imaging in a normal mongrel dog (Examples 4 and 5)
Description: For example, time dependent scintiscans of the chest region of a patient can be used. A computer interface, 16 crystal, Ohio Nuclear Spectrometer, is used for these scans and about 5 mCi of a given radiopharmaceutical is injected; blood samples are concurrently collected via an indwelling intravenous catheter in order to determine blood clearance rates. Time dependent tissue distribution studies are then conducted.

## trans-[Tc-99m(diars)2 Br2 ]Br [trans-[Tc(diars)2 Br2]Br]
[1]; 10 min post dose
  Blood: 0.38(3) % of the dose/g
  Femur Muscle: 0.22(6) % of the dose/g
  Kidney: 3.1(6) % of the dose/g
  Liver: 4.5(6) % of the dose/g
  Pancreas: 1.0(3) % of the dose/g
[1]; 10 min post dose, 10 min
  Heart: 2.3(5) % of the dose/g and 2.3 % of the dose/g
[1]; 30 min post dose
  Blood: 0.27(3) % of the dose/g
  Femur Muscle: 0.29(3) % of the dose/g
  Heart: 1.8(1) % of the dose/g
  Kidney: 2.3(1) % of the dose/g
  Liver: 2.9(6) % of the dose/g
  Pancreas: 1.2(2) % of the dose/g
[1]; 60 min post dose
  Blood: 0.21(1) % of the dose/g
  Femur Muscle: 0.26(5) % of the dose/g
  Heart: 1.3(1) % of the dose/g
  Kidney: 2.1(1) % of the dose/g
  Liver: 2.7(3) % of the dose/g
  Pancreas: 0.9(1) % of the dose/g
[1]; 120 min post dose
  Blood: 0.18(3) % of the dose/g
  Femur Muscle: 0.28(2) % of the dose/g
  Heart: 1.0(1) % of the dose/g
  Kidney: 1.9(1) % of the dose/g
  Liver: 2.1(2) % of the dose/g
  Pancreas: 0.8(1) % of the dose/g
[2]; FIG. 3
  gallbladder handling of the two agents: the gallbladder handles these two agents differently
[2]; intravenous
  gallbladder uptake (rate): relatively slow
  time post intravenous injection at which the myocardium is readily visualized: 20 to 40 min
[3]; 0 minutes, immediately after injection
  complex in the blood pool: most of the complex is in the blood pool which is predominantly in the heart chambers
[3]; 1 minute after injection
  clearance from the blood: begins to clear from the blood
  gallbladder uptake: The gallbladder does not yet contain any activity
  liver uptake: starts to enter the liver
[3]; 5 minutes
  clearance from the blood: The complex is all gone from the blood
  gallbladder uptake: A small amount has begun to enter the gallbladder
  heart image: the heart image has disappeared
  liver uptake: most of it is in the liver
[3]; 10 minutes
  gallbladder uptake: The gallbladder has taken up most of the complex and appears brighter than even the liver
[3]; 20 minutes
  gallbladder uptake: The gallbladder has taken up the bulk of the complex
  liver activity: the liver contains relatively little activity
[3]; 30 minutes, FIGS. 1 and 2
  gallbladder uptake: the gallbladder has taken up the bulk of the complex
  liver activity: the liver contains relatively little activity
[3]; FIGS. 1 and 2
  time after injection at which the complex had cleared the blood: 5 min
  time after injection at which the complex started clearing the liver and entering the gallbladder: 10 min
[4]
  Blood clearance curves, comparison of the two complexes: biologically differentiated
[5]
  removal of the bulk of the activity: The bulk of the activity is taken out by the hepatobiliary system
[5]; 50% ethanol/50% saline vehicle
  maximal myocardial uptake, time post injection: about 20 minutes
[5]; high sensitivity colimator
  visualization of the myocardium: clearly visualizing the myocardium

## C[P+]1(C)CC[P+](C)(C)[99Tc-3]12([Br])([Br])[P+](C)(C)CC[P+]2(C)C [[99m-Tc(DMPE)2 Br2]^+, [99m-Tc(DMPE)2 Br2]Br]
[5]; same conditions as Example 4
  Myocardial uptake by the heart: Myocardial uptake by the heart of a normal mongrel dog was observed
